How the values were obtained:
[1] = test system: Bifidobacterium adolescentis JCM 1275; test: Assimilation test by intestinal microorganism; type: cell-based; conditions: 0.5 w/v % saccharide in PYF broth, 37° C., 96 hours
[2] = test system: Clostridium sporogenes JCM 1416; test: Assimilation test by intestinal microorganism; type: cell-based; conditions: 0.5 w/v % saccharide in PYF broth, 37° C., 96 hours, free of sugar: ±
Protocol: (§1) To evaluate the growth rate of and to judge the assimilability by the microorganisms, the resultant broth was diluted 5-fold, and the turbidity of the dilution was measured at a wavelength of 750 nm in a 1-cm light-path cell. […] The criteria were in Table 3, and the results were in Tables 4 and 5: […]

[3] = test system: Bifidobacterium breve JCM 1192; test: Assimilation test by intestinal microorganism; type: cell-based; conditions: 0.5 w/v % saccharide in PYF broth, 37° C., 96 hours
[4] = test system: Clostridium ramosum JCM 1298; test: Assimilation test by intestinal microorganism; type: cell-based; conditions: 0.5 w/v % saccharide in PYF broth, 37° C., 96 hours
[5] = test system: Bacteroides uniformis JCM 5828; test: Assimilation test by intestinal microorganism; type: cell-based; conditions: 0.5 w/v % saccharide in PYF broth, 37° C., 96 hours
[6] = test system: Bifidobacterium bifidum JCM 1255; test: Assimilation test by intestinal microorganism; type: cell-based; conditions: 0.5 w/v % saccharide in PYF broth, 37° C., 96 hours
[7] = test system: Peptostreptococcus prevotii ATCC 9321; test: Assimilation test by intestinal microorganism; type: cell-based; conditions: 0.5 w/v % saccharide in PYF broth, 37° C., 96 hours
[8] = test system: Lactobacillus fermentum IFO 3959; test: Assimilation test by intestinal microorganism; type: cell-based; conditions: 0.5 w/v % saccharide in PYF broth, 37° C., 96 hours
[9] = test system: Eubacterium aerofaciens ATCC 25986; test: Assimilation test by intestinal microorganism; type: cell-based; conditions: 0.5 w/v % saccharide in PYF broth, 37° C., 96 hours
[10] = test system: Bifidobacterium infantis JCM 1222; test: Assimilation test by intestinal microorganism; type: cell-based; conditions: 0.5 w/v % saccharide in PYF broth, 37° C., 96 hours
[11] = test system: Clostridium butyricum JCM 1391; type: cell-based; conditions: 0.5 w/v % saccharide in PYF broth, 37° C., 96 hours
[12] = test system: Clostridium perfringens JCM 3816; type: cell-based; conditions: 0.5 w/v % saccharide in PYF broth, 37° C., 96 hours
[13] = test system: Escherichia coli IFO 3301; test: Assimilation test by intestinal microorganism; type: cell-based; conditions: 0.5 w/v % saccharide in PYF broth, 37° C., 96 hours
[14] = test system: Bifidobacterium longum JCM 1217; test: Assimilation test by intestinal microorganism; type: cell-based; conditions: 0.5 w/v % saccharide in PYF broth, 37° C., 96 hours
[15] = test system: Bacteroides distasonis JCM 5825; test: Assimilation test by intestinal microorganism; type: cell-based; conditions: 0.5 w/v % saccharide in PYF broth, 37° C., 96 hours
[16] = test system: Streptococcus faecalis IAM 10065; test: Assimilation test by intestinal microorganism; type: cell-based; conditions: 0.5 w/v % saccharide in PYF broth, 37° C., 96 hours
[17] = test system: Bifidobacterium animalis JCM 1190; test: Assimilation test by intestinal microorganism; type: cell-based; conditions: 0.5 w/v % saccharide in PYF broth, 37° C., 96 hours
[18] = test system: Lactobacillus plantarum IFO 3070; test: Assimilation test by intestinal microorganism; type: cell-based; conditions: 0.5 w/v % saccharide in PYF broth, 37° C., 96 hours
[19] = test system: Bacteroides vulgatus JCM 5826; test: Assimilation test by intestinal microorganism; type: cell-based; conditions: 0.5 w/v % saccharide in PYF broth, 37° C., 96 hours
[20] = test system: crude glucosyltransferase specimen derived from Streptococcus sobrinus strain (ATCC 27351); test: Inhibition of insoluble glucan formation by glucosyltransferase from dental caries-inducing microorganism; type: biochemical; conditions: sucrose plus test saccharide (one ml of one w/v % each), pH 6.8, 37° C., 16 hours; for Yield of non-adsorbed glucans: sucrose alone 923; for Yield of adsorbed glucans: sucrose alone 1,160
Protocol: To a mixture solution consisting of one ml of one w/v % sucrose solution, one ml of one w/v % of a test saccharide solution, and 1.5 ml of 0.1M phosphate buffer (pH 6.8) was added 0.5 ml solution containing a crude glucosyltransferase specimen in a total protein content of 10 mg, and the mixture solution was placed in a small test tube which was then fixed and slanted to give a grade 30 degrees and allowed to react at 37° C. for 16 hours. The reaction mixture was transferred gently to another test tube and mixed with a solution obtained by washing carefully with 4 ml water the remaining substances adhered to the inner walls of the small test tube, and the mixture solution was centrifuged to obtain a precipitate as a non-adsorbed glucan. The amounts of the adsorbed- and non-adsorbed glucans thus obtained were respectively quantified by the anthrone-sulfuric acid method, and the total amount of them was regarded as the amount of the formed insoluble glucans. As a control system, a reaction system using water in place of the test saccharide solution, i.e. a reaction system using sucrose as a saccharide, was provided.

bifid bacteria [21] = test: Assimilation test by intestinal microorganism, overall judgement; type: cell-based; conditions: results of Tables 4 and 5
Protocol: as §1

[22] = Maillard reaction (coloration with glycine); type: physicochemical; conditions: 10 w/v % saccharide, one w/v % glycine, 50 mM phosphate buffer pH 7.0, 100° C., 90 min; 1-cm cell
bifid bacteria [23] = test: Influence on growth-promoting activity for bifid bacteria in vivo (feces of volunteers); parameters: species or system human; conditions: after vs before 14-day administration; span over both saccharides
Protocol: The weight of daily feces before and after the 14-day administration tests, the relative change of feces' weight, the feces' pH, the total number of microorganisms per g of feces, the percentage of the number of bifid bacteria to the total number of microorganisms in feces, and the relative change of the total number of bifid bacteria were measured, followed by calculating the mean value of the five volunteers. Among these measurements, the total number of microorganisms was determined in accordance with the method as reported in "A Color Atlas of Anaerobic Bacteria", pp.53-65 (1984), edited by Tomotari MITSUOKA, published by Kabushiki Kaisha Sobunsha, Tokyo, Japan (1984): The colonies grown in 13 different types of media excluding M10 medium were judged for which genus they belong to and counted for cells. The cell count obtained with a specific medium, which gave the highest number of microorganisms for each genus, was determined to be a real cell count. The total cell count of microorganisms of all the genera was determined to be the total number of microorganisms in each volunteer's feces.

Acute toxicity test = type: in vivo; conditions: oral, mice, highest possible dose
Text: As a result, no mouse died even when administered with a highest possible dose. This means that the LD50 is 50 g/kg mouse or more and concludes that it is extremely low in toxicity.

[24] = test system: Enzyme from small intestinal mucus membrane; conditions: enzymes of small intestinal mucus membranes
[25] = test system: Streptococcus sobrinus ATCC 27351; test: Acid formation by dental caries-inducing microorganisms; conditions: living wet cells, 0.02M saccharide, Stephen buffer pH 7.0, 37° C.; for pH at each fermentation time (min): 0: 0 min; for pH at each fermentation time (min): 5: 5 min; for pH at each fermentation time (min): 15: 15 min; for pH at each fermentation time (min): 30: 30 min; for pH at each fermentation time (min): 60: 60 min; for pH at each fermentation time (min): 90: 90 min

| Structure (SMILES) | Judgement of assimilation (turbidity at a wavelength of 750 nm × 5) [1] | Judgement of assimilation (turbidity at a wavelength of 750 nm × 5) [3] | Judgement of assimilation (turbidity at a wavelength of 750 nm × 5) [4] | Judgement of assimilation (turbidity at a wavelength of 750 nm × 5) [5] | Judgement of assimilation (turbidity at a wavelength of 750 nm × 5) [6] | Judgement of assimilation (turbidity at a wavelength of 750 nm × 5) [7] | Judgement of assimilation (turbidity at a wavelength of 750 nm × 5) [8] | Judgement of assimilation (turbidity at a wavelength of 750 nm × 5) [9] | Judgement of assimilation (turbidity at a wavelength of 750 nm × 5) [10] | Judgement of assimilation (turbidity at a wavelength of 750 nm × 5) [11] | Judgement of assimilation (turbidity at a wavelength of 750 nm × 5) [12] | Judgement of assimilation (turbidity at a wavelength of 750 nm × 5) [13] | Judgement of assimilation (turbidity at a wavelength of 750 nm × 5) [14] | Judgement of assimilation (turbidity at a wavelength of 750 nm × 5) [15] | Judgement of assimilation (turbidity at a wavelength of 750 nm × 5) [16] | Judgement of assimilation (turbidity at a wavelength of 750 nm × 5) [17] | Judgement of assimilation (turbidity at a wavelength of 750 nm × 5) [18] | Judgement of assimilation (turbidity at a wavelength of 750 nm × 5) [19] | Yield of non-adsorbed glucans [20] [µg/mL] | Yield of adsorbed glucans [20] [µg/mL] | also measured |
| --- | --- | --- | --- | --- | --- | --- | --- | --- | --- | --- | --- | --- | --- | --- | --- | --- | --- | --- | --- | --- | --- |
| O=C[C@H](O)[C@@H](O)[C@H](O)[C@H](O)CO [A, glucose, reference compound] | +++ (0.3 or higher) | ++ (0.2 or higher but less than 0.3) | + (0.15 or higher but less than 0.2) | ++ (0.2 or higher but less than 0.3) | ++ (0.2 or higher but less than 0.3) | + (0.15 or higher but less than 0.2) | ++ (0.2 or higher but less than 0.3) | +++ (0.3 or higher) | ++ (0.2 or higher but less than 0.3) | +++ (0.3 or higher) | +++ (0.3 or higher) | + (0.15 or higher but less than 0.2) | +++ (0.3 or higher) | ++ (0.2 or higher but less than 0.3) | ++ (0.2 or higher but less than 0.3) | +++ (0.3 or higher) | ++ (0.2 or higher but less than 0.3) | + (0.15 or higher but less than 0.2) |  |  | Judgement of assimilation (turbidity at a wavelength of 750 nm × 5) [2]: + (0.15 or higher but less than 0.2) |
| OC[C@H]1O[C@H](OC[C@H]2O[C@H](O[C@H]3O[C@H](CO)[C@@H](O)[C@H](O)[C@H]3O)[C@H](O)[C@@H](O)[C@@H]2O)[C@H](O)[C@@H](O)[C@@H]1O [O-α-D-glucopyranosyl-(1→6)-α-D-glucopyranosyl α-D-glucopyranoside] | +++ (0.3 or higher) | +++ (0.3 or higher) | - (Less than 0.1) | - (Less than 0.1) | ++ (0.2 or higher but less than 0.3) | ± (0.1 or higher but less than 0.15) | - (Less than 0.1) | - (Less than 0.1) | +++ (0.3 or higher) |  | + (0.15 or higher but less than 0.2) | - (Less than 0.1) | +++ (0.3 or higher) | - (Less than 0.1) | - (Less than 0.1) | +++ (0.3 or higher) | - (Less than 0.1) | - (Less than 0.1) | 118 | 30 | Selective assimilability by bifid bacteria, in words (bifid bacteria [21]): high in the selective assimilability by bifid bacteria; Coloration degree (at a wavelength of 480 nm) [22]: 0.021; Increase of the total cell count of bifid bacteria (bifid bacteria [23]): 2.3- to 2.5 fold; Mortality in acute toxicity test, in words (Acute toxicity test): no mouse died; Digestibility, judgement in words [24]: slightly hydrolyzed; pH at each fermentation time (min): 0 [25]: 7.0; pH at each fermentation time (min): 5 [25]: 7.0; pH at each fermentation time (min): 15 [25]: 6.9; pH at each fermentation time (min): 30 [25]: 6.9; pH at each fermentation time (min): 60 [25]: 6.9; pH at each fermentation time (min): 90 [25]: 6.9 |
| OC[C@H]1O[C@H](OC[C@H]2O[C@H](O[C@H]3O[C@H](CO[C@H]4O[C@H](CO)[C@@H](O)[C@H](O)[C@H]4O)[C@@H](O)[C@H](O)[C@H]3O)[C@H](O)[C@@H](O)[C@@H]2O)[C@H](O)[C@@H](O)[C@@H]1O [α-Isomaltosyl α-isomaltoside, O-α-D-glucopyranosyl-(1→6)-α-D-glucopyranosyl O-α-D-glucopyranosyl-(1→6)-α-D-glucopyranoside] | +++ (0.3 or higher) | +++ (0.3 or higher) | - (Less than 0.1) | - (Less than 0.1) | ++ (0.2 or higher but less than 0.3) | ± (0.1 or higher but less than 0.15) | - (Less than 0.1) | - (Less than 0.1) | +++ (0.3 or higher) | +++ (0.3 or higher) | - (Less than 0.1) | - (Less than 0.1) | +++ (0.3 or higher) | - (Less than 0.1) | - (Less than 0.1) | +++ (0.3 or higher) | - (Less than 0.1) | - (Less than 0.1) | 298 | 72 | Selective assimilability by bifid bacteria, in words (bifid bacteria [21]): high in the selective assimilability by bifid bacteria; Coloration degree (at a wavelength of 480 nm) [22]: 0.016; Increase of the total cell count of bifid bacteria (bifid bacteria [23]): 2.3- to 2.5 fold; Digestibility, judgement in words [24]: relatively-low in digestibility; pH at each fermentation time (min): 0 [25]: 7.0; pH at each fermentation time (min): 5 [25]: 7.0; pH at each fermentation time (min): 15 [25]: 6.9; pH at each fermentation time (min): 30 [25]: 6.9; pH at each fermentation time (min): 60 [25]: 6.9; pH at each fermentation time (min): 90 [25]: 6.9 |

Source: patent publication US5883243A, “Non-reducing saccharides, their preparations and uses” (Kabushiki Kaisha Hayashibara Seibutsu Kagaku Kenkyujo, priority 1997, dated 1999)
